Target: T1, human GnRH receptor (hGnRHR) (Homo sapiens, UniProt P30968)
T1 sequence (P30968 1-328): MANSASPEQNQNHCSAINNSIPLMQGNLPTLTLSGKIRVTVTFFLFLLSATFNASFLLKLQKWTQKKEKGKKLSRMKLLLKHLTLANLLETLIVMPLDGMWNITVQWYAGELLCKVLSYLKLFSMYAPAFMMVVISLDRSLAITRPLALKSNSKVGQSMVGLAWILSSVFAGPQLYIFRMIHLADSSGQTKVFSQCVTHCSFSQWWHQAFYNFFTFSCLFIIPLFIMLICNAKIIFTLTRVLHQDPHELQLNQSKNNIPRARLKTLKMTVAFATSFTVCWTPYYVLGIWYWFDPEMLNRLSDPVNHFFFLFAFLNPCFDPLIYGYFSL
Type: cell-based

EC50: 3–5×10^−8 M
SMILES: Cc1cc(C)cc(-c2[nH]c3ccc(C(C)(C)C(=O)N4CC5CCC4CC5)cc3c2[C@H](C)CNCCc2ccncc2)c1 [IN3, (2S)-2-[5-[2-(2-axabicyclo[2.2.2]oct-2-yl)-1,1-dimethy-2-oxoethyl]-2-(3,5-dimethylphenyl)-1H-indol-3-yl]-N-(2-pyridin-4-ylethyl)propan-1-amine]
